Test results reported in US5486526A, “Histamine H3 -receptor antagonists and therapeutic uses thereof” (The University of Toledo, priority 1993, dated 1996).
Like-named read-outs stand apart in the source and are kept apart here.

Key:
Glycine [1] = assay: NOVASCREEN receptor selectivity assay: Glycine (inhibitory); type: binding; conditions: 10^-5 M
Calcium [2] = assay: NOVASCREEN receptor selectivity assay: Calcium (Nifedipine); type: binding; conditions: 10^-5 M
Male albino CF-1 mice = assay: Behavioral effects in mice: sleep induced by (R)α-methylhistamine; type: in vivo, mouse
Procedure: (§1) The overall strategy to show central nervous system antagonist activity was to challenge effects of the agonist (R)α-methylhistamine. Therefore, the first objective was to establish a dose response curve for behavioral effects of (R)α-methylhistamine. Male albino CF-1 mice weighing 20-30 g were used. Saline or (R)α-methylhistamine in saline was injected i.p. in a volume ≤0.4 ml. […] Animals were scored for the presence (1) or absence (0) of the behavior and the results were reported as the accumulated score for a 30 minute period (maximum score=9).
(§2) To assess the effects of antagonists, they were administered with the (R)α-methylhistamine in saline.

Substance K = assay: NOVASCREEN receptor selectivity assay: Substance K; type: binding; conditions: 10^-5 M
[3] = tested on: H3 receptors in the cortex; assay: Blood-brain barrier penetration by ex vivo binding of [^3 H]-N^α -methylhistamine in rat cortex
Procedure: Blood-brain barrier penetration in rats was assessed by an ex vivo binding procedure. Young adult male Long-Evans rats were injected i.p. with saline or H3 antagonists in saline. At various times after injection animals were sacrificed, the cortex was removed, homogenized in 50 mM Na/K-phosphate buffer, pH 7.4, and the binding of 1 nM [^3 H]-N^α -methylhistamine was measured using 400 μg protein of the homogenate. Nonspecific binding was accounted for by the inclusion of excess thioperamide in some samples. Under these conditions, the binding was approximately 90% specific.

EGF = assay: NOVASCREEN receptor selectivity assay: EGF; type: binding; conditions: 10^-5 M
CCK Central = assay: NOVASCREEN receptor selectivity assay: CCK Central; type: binding; conditions: 10^-5 M
Calcium [4] = type: binding; conditions: 10^-5 M
[5] = tested on: Protein Kinase C Phorbol Ester; assay: NOVASCREEN receptor selectivity assay: Protein Kinase C, Phorbol Ester; type: binding; conditions: 10^-5 M
Male Sprague-Dawley rats = assay: Food intake in 24-hour-fasted rats; type: in vivo, rat
Procedure: Male Sprague-Dawley rats (200-300 grams) were used in all experiments. Rats were fasted for 24 hours prior to all experiments. Water was provided ad lib. Rats were singly placed in a ventilated plastic circular rat metabolism chamber with a stainless steel wire mess grid flood equipped with food and H2 O attachments. A measured quantity of food (50 grams) and water (100 mls) was supplied through attachments to the metabolism chambers. Food and water intake was measured at the 2, 4 and 6 hour time periods.
Final volumes were 1.0 ml/kg. Subsequently, they were left undisturbed for the experimental period except when the food and H2 O attachments were briefly removed for measurement of food and water intake. At the completion of the experiment, animals were returned to their home cages. The results are found in Table III and FIGS. 7 and 8.

Adenosine = assay: NOVASCREEN receptor selectivity assay: Adenosine; type: binding; conditions: 10^-5 M
GABAA = assay: NOVASCREEN receptor selectivity assay: GABAA; type: binding; conditions: 10^-5 M
H3 -receptor = assay: In vivo assays of H3-receptor antagonist effect (overall)
Procedure: as §1, §2

Chloride = assay: NOVASCREEN receptor selectivity assay: Chloride; type: binding; conditions: 10^-5 M
Glycine [6] = assay: NOVASCREEN receptor selectivity assay: Glycine (excitatory); type: binding; conditions: 10^-5 M
MK-801 = assay: NOVASCREEN receptor selectivity assay: MK-801; type: binding; conditions: 10^-5 M
NPY = assay: NOVASCREEN receptor selectivity assay: NPY; type: binding; conditions: 10^-5 M
Potassium = assay: NOVASCREEN receptor selectivity assay: Potassium; type: binding; conditions: 10^-5 M
Bombesin = assay: NOVASCREEN receptor selectivity assay: Bombesin; type: binding; conditions: 10^-5 M
[7] = Toxicity observed in testing to date; type: in vivo; conditions: all testing to date, even at high doses
Dopamine 1 = assay: NOVASCREEN receptor selectivity assay: Dopamine 1; type: binding; conditions: 10^-5 M
Serotonin 2 = assay: NOVASCREEN receptor selectivity assay: Serotonin 2; type: binding; conditions: 10^-5 M
Quisqualate = assay: NOVASCREEN receptor selectivity assay: Quisqualate; type: binding; conditions: 10^-5 M
Arg-Vasopressin V1 = assay: NOVASCREEN receptor selectivity assay: Arg-Vasopressin V1; type: binding; conditions: 10^-5 M
[8] = tested on: Adenylate Cyclase Forskolin; assay: NOVASCREEN receptor selectivity assay: Adenylate Cyclase, Forskolin; type: binding; conditions: 10^-5 M
Somatostatin = assay: NOVASCREEN receptor selectivity assay: Somatostatin; type: binding; conditions: 10^-5 M
Angiotensin = assay: NOVASCREEN receptor selectivity assay: Angiotensin; type: binding; conditions: 10^-5 M
Dopamine 2 = assay: NOVASCREEN receptor selectivity assay: Dopamine 2; type: binding; conditions: 10^-5 M
Substance P = assay: NOVASCREEN receptor selectivity assay: Substance P; type: binding; conditions: 10^-5 M
ANF (rat) = assay: NOVASCREEN receptor selectivity assay: ANF (rat); type: binding; conditions: 10^-5 M
CCK Peripheral = assay: NOVASCREEN receptor selectivity assay: CCK Peripheral; type: binding; conditions: 10^-5 M
NMDA = assay: NOVASCREEN receptor selectivity assay: NMDA; type: binding; conditions: 10^-5 M
Serotonin 1 = assay: NOVASCREEN receptor selectivity assay: Serotonin 1; type: binding; conditions: 10^-5 M
PCP = assay: NOVASCREEN receptor selectivity assay: PCP; type: binding; conditions: 10^-5 M
Kainate = assay: NOVASCREEN receptor selectivity assay: Kainate; type: binding; conditions: 10^-5 M
Neurotensin = assay: NOVASCREEN receptor selectivity assay: Neurotensin; type: binding; conditions: 10^-5 M
Inositol Triphosphate [9] = assay: NOVASCREEN receptor selectivity assay: Inositol Triphosphate; type: binding; conditions: 10^-5 M
Benzodiazephine = assay: NOVASCREEN receptor selectivity assay: Benzodiazephine; type: binding; conditions: 10^-5 M
VIP = assay: NOVASCREEN receptor selectivity assay: VIP; type: binding; conditions: 10^-5 M
GABAB = assay: NOVASCREEN receptor selectivity assay: GABAB; type: binding; conditions: 10^-5 M
[10] = tested on: adenosine, excitory or inhibitory amino acid, dopamine, serotonin, or a broad range of petidergic receptors, or to ion channel proteins, peptide factor or …; assay: NOVASCREEN receptor selectivity study (whole panel); type: binding; conditions: 10^-5 M
NGF = assay: NOVASCREEN receptor selectivity assay: NGF; type: binding; conditions: 10^-5 M
[11] = tested on: animal toxicity studies or in clinical usage; conditions: cited from earlier work
histamine H3 receptors = conditions: in vitro; cited from earlier work
brain in rats = conditions: cited from earlier work
histamine H3 receptor = molecular target: T1, histamine H3 receptor (Rattus norvegicus, UniProt Q9QYN8); assay: Inhibition of [^3 H]-N-alpha-methylhistamine binding to rat brain membranes
T1 construct: from tissue
Procedure: A series of compounds were prepared and tested for their histamine H3 receptor antagonist activity. The antagonist activity of the compounds was detected by observing inhibition of (^3 H)-N-(alpha)methylhistamine activity on rat brain membranes.
The various compounds were tested for the ability to bind to the histamine H3 receptor. A binding assay in a rat brain membrane preparation, based on inhibition of binding of [^3 H]-N-alpha-methylhistamine using excess unlabeled alpha-methylhistamine to account for nonspecific binding, was developed.

Inositol Triphosphate [12] = conditions: reference compound; cited from earlier work
peptic ulcer patients = conditions: cited from earlier work
[13] = molecular target: Adenylate Cyclase Forskolin; conditions: reference compound; cited from earlier work

T1 sequence (Q9QYN8 whole entry): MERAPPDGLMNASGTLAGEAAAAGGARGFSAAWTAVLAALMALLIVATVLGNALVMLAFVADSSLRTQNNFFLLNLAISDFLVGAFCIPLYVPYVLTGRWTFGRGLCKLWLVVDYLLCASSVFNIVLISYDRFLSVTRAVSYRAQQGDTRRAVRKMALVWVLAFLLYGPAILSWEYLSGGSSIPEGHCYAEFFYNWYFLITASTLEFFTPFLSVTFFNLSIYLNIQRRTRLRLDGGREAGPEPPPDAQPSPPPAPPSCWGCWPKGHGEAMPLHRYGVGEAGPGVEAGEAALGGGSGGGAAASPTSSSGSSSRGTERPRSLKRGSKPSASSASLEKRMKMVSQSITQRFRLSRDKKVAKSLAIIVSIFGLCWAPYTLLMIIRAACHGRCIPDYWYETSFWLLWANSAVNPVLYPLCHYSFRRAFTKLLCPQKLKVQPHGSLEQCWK

O=C(CCCCC1CCCCC1)N1CCC(c2c[nH]cn2)CC1 [Compound 1, 4-(1-cyclohexylvaleroyl-4-piperidyl)-1H-imidazole]
Initial Percent Inhibition (Average; N = 2) (Glycine [1]): 17.4% | Initial Percent Inhibition (Average; N = 2) (Calcium [2]): 8.1% | soporific effect of (R)α-methylhistamine (in words) (Male albino CF-1 mice; 25 mg/kg (R)α-methylhistamine): inhibited the soporific effect | Initial Percent Inhibition (Average; N = 2) (Substance K): 29.2% | penetration of the blood-brain barrier (in words) ([3]; 50 and 70 mg/kg, one hour after injection): penetrates the blood-brain barrier one hour after injections | penetration of the blood-brain barrier compared with thioperamide (in words) ([3]; taking into account the difference in affinity): penetrates the blood-brain barrier at least as well as thioperamide | Initial Percent Inhibition (Average; N = 2) (EGF): 18.1% | Initial Percent Inhibition (Average; N = 2) (CCK Central): 18.6% | Initial Percent Inhibition (Average; N = 2) (Calcium [4]): 1.9% | Initial Percent Inhibition (Average; N = 2) [5]: 0.9% | food intake 2 HR (Male Sprague-Dawley rats; 3 mg/kg i.p.): 5.687 | food intake 4 HR (Male Sprague-Dawley rats; 3 mg/kg i.p.): 7.333 | food intake 2 HR (Male Sprague-Dawley rats; 10 mg/kg i.p.): 2.000 | food intake 4 HR (Male Sprague-Dawley rats; 10 mg/kg i.p.): 5.167 | food intake 2 HR (Male Sprague-Dawley rats; 30 mg/kg i.p.): 1.167 | food intake 4 HR (Male Sprague-Dawley rats; 30 mg/kg i.p.): 2.333 | food intake 6 HR (Male Sprague-Dawley rats; 30 mg/kg i.p.): 5.000 | Initial Percent Inhibition (Average; N = 2) (Adenosine): -3.0% | Initial Percent Inhibition (Average; N = 2) (GABAA): 0.6% | H3 -receptor antagonist effect (in words) (H3 -receptor): effective as an H3 -receptor antagonist | Initial Percent Inhibition (Average; N = 2) (Chloride): -3.4% | Initial Percent Inhibition (Average; N = 2) (Glycine [6]): 1.8% | Initial Percent Inhibition (Average; N = 2) (MK-801): -8.6% | Initial Percent Inhibition (Average; N = 2) (NPY): -8.7% | Initial Percent Inhibition (Average; N = 2) (Potassium): 7.7% | Initial Percent Inhibition (Average; N = 2) (Bombesin): -5.5% | toxicity (in words) [7]: no toxicity | Initial Percent Inhibition (Average; N = 2) (Dopamine 1): 6.4% | Initial Percent Inhibition (Average; N = 2) (Serotonin 2): 10.5% | Initial Percent Inhibition (Average; N = 2) (Quisqualate): -1.8% | Initial Percent Inhibition (Average; N = 2) (Arg-Vasopressin V1): 10.1% | Initial Percent Inhibition (Average; N = 2) [8]: 2.1% | Initial Percent Inhibition (Average; N = 2) (Somatostatin): 4.1% | Initial Percent Inhibition (Average; N = 2) (Angiotensin): 6.5% | Initial Percent Inhibition (Average; N = 2) (Dopamine 2): 3.5% | Initial Percent Inhibition (Average; N = 2) (Substance P): 20.0% | Initial Percent Inhibition (Average; N = 2) (ANF (rat)): 0.1% | Initial Percent Inhibition (Average; N = 2) (CCK Peripheral): 6.9% | Initial Percent Inhibition (Average; N = 2) (NMDA): -4.5% | Initial Percent Inhibition (Average; N = 2) (Serotonin 1): -3.6% | Initial Percent Inhibition (Average; N = 2) (PCP): 9.7% | Initial Percent Inhibition (Average; N = 2) (Kainate): 42.1% | Initial Percent Inhibition (Average; N = 2) (Neurotensin): -10.5% | Initial Percent Inhibition (Average; N = 2) (Inositol Triphosphate [9]): 9.2% | Initial Percent Inhibition (Average; N = 2) (Benzodiazephine): 2.7% | Initial Percent Inhibition (Average; N = 2) (VIP): 17.1% | Initial Percent Inhibition (Average; N = 2) (GABAB): 0.0% | binding to panel receptors (in words) [10]: no significant binding | Initial Percent Inhibition (Average; N = 2) (NGF): 17.1%

CN/C(=N/CCSCc1nc[nH]c1C)NC#N [cimetidine]
granulocytopenia or other side effects (in words) [11]: did not cause granulocytopenia, or any other side effects

S=C(NC1CCCCC1)N1CCC(c2cnc[nH]2)CC1 [Thioperamide, reference compound]
soporific effect of (R)α-methylhistamine (in words) (Male albino CF-1 mice; 30 mg/kg of (R)α-methylhistamine): able to inhibit the soporific effect | behavior with antagonist alone (in words) (Male albino CF-1 mice; in the absence of the α-methylhistamine H3 receptor agonist): animals were very active, exhibiting normal behaviors | binding of [^3 H]-N^α -methylhistamine to cortex (in words) ([3]; 2, 5, and 10 mg/kg i.p., 15 min after injection): decreased the binding of [^3 H]-N^α -methylhistamine | penetration of the blood-brain barrier (in words) ([3]; thioperamide 2, 5, 10 mg/kg i.p., 15 min): able to penetrate the blood-brain barrier | Ki (histamine H3 receptors): 4.3 nM | dose required in vivo to inhibit histamine release from the brain (in words) (brain in rats): relatively high doses are required in vivo | IC50 (histamine H3 receptor): 4 ± 0.6 nM | IC50 (histamine H3 receptor; read-out: affinity, repeated in text): 4 nM

O=P(O)(O)O[C@@H]1[C@H](O)[C@H](O)[C@@H](OP(=O)(O)O)[C@H](OP(=O)(O)O)[C@H]1O [IP3]
Ki (Inositol Triphosphate [12]): 12.5 nM

C/N=C(\S)NCCSCc1[nH]cnc1C [metiamide]
granulocytopenia (in words) (peptic ulcer patients): low incidence of granulocytopenia

C=C[C@@]1(C)CC(=O)[C@]2(O)[C@@]3(C)[C@@H](O)CCC(C)(C)[C@@H]3[C@H](O)[C@H](OC(C)=O)[C@@]2(C)O1 [Forskolin]
Ki [13]: 29.4 nM
